Data taken from PubChem BioAssay (NCI).
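Grown in 96-well plates, cells were treated for 48 hours with each compound at five concentrations. Insufficient inhibition: endpoint recorded as highest concentration tested. Abbreviation: GI50, concentration required for 50% inhibition of growth. TGI: total growth inhibition.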

Legend:
Experiment in all cases: NCI-60 cell line screen, 48 h
SNB-75 CNS = test system: SNB-75 CNS
DU-145 prostate = test system: DU-145 prostate
SK-OV-3 ovarian = test system: SK-OV-3 ovarian
U251 CNS = test system: U251 CNS
ACHN renal = test system: ACHN renal
RXF 393 renal = test system: RXF 393 renal
UACC-62 melanoma = test system: UACC-62 melanoma
SR leukemia = test system: SR leukemia
HL-60(TB) leukemia = test system: HL-60(TB) leukemia
HOP-62 NSCLC = test system: HOP-62 NSCLC

Structure (SMILES) | GI50 (SNB-75 CNS) | TGI (SNB-75 CNS) | GI50 (DU-145 prostate) | TGI (DU-145 prostate) | GI50 (SK-OV-3 ovarian) | TGI (SK-OV-3 ovarian) | GI50 (U251 CNS) | TGI (U251 CNS) | GI50 (ACHN renal) | TGI (ACHN renal) | GI50 (RXF 393 renal) | TGI (RXF 393 renal) | GI50 (UACC-62 melanoma) | TGI (UACC-62 melanoma) | GI50 (SR leukemia) | TGI (SR leukemia) | GI50 (HL-60(TB) leukemia) | TGI (HL-60(TB) leukemia) | TGI (HOP-62 NSCLC) | GI50 (HOP-62 NSCLC)
Cc1nccc2c3ccc(OCc4cn(-c5ccc(Cl)cc5)nn4)cc3n(CC(C)C)c12 | 5.09 µM | 14.4 µM | 11.5 µM | > 33.3 µM | 4.25 µM | 16.5 µM | 2.62 µM | 13.3 µM | 3.62 µM | 9.59 µM | 2.85 µM | 11.8 µM | 2.31 µM | 10.1 µM | 1.03 µM | 5.53 µM | 0.886 µM | 2.07 µM |  | 
O=C1C2C3C=CC(C2C(=O)N1CN1CCSCC1)C1C2C(=O)N(CN4CCSCC4)C(=O)C2C31 (configuration not stated) | 38.6 µM | > 93 µM | 78.4 µM |  |  | > 100 µM |  | > 100 µM |  | > 100 µM |  | > 100 µM |  | > 100 µM |  | > 100 µM |  | 73 µM | > 100 µM | 
Cc1ccc(S(=O)(=O)Nc2ccc(-c3cc(-c4cccc(F)c4)c(C#N)c(N)n3)cc2)cc1 |  |  | 2.33 µM | 5.45 µM | 8.92 µM | 23.3 µM | 2.75 µM | 9.62 µM | 1.58 µM | 2.92 µM | 1.44 µM | 2.79 µM | 1.52 µM | 3.44 µM | 2.7 µM | 10.5 µM | 1.87 µM | 6.07 µM | 17.2 µM | 4.25 µM
Cc1cc(Cl)cc(Cc2cc(Cl)cc(C)c2O)c1O | 1.95 µM | 7.19 µM | 3.47 µM | 17 µM | 3.18 µM | 8.89 µM | 2.93 µM | 11.3 µM | 2.26 µM | 7.26 µM | 2.29 µM | 6.91 µM | 2.28 µM | 10.6 µM | 2.58 µM | 10.8 µM | 2.94 µM | 8.09 µM | 11.5 µM | 3.66 µM
CCCCCC[C@H](C)NC(=O)c1ccc(Nc2nc3ccccc3c3occc23)cc1 | 3.99 µM | 7.69 µM | 3.07 µM | 8.87 µM | 5.11 µM | > 100 µM | 19 µM | > 100 µM | 13.7 µM | 40 µM | 3.88 µM | 13.7 µM | 16 µM | 35.5 µM | 6.65 µM | 55.5 µM | 4.47 µM | 48.9 µM | 12.9 µM | 3.39 µM
N#CC1C(=O)NC(c2ccccc2[N+](=O)[O-])c2sc3c(F)cccc3c21 (configuration not stated) | 1.62 µM | 94.9 µM | 8.16 µM | 46.1 µM | 10.1 µM | 62.3 µM | 1.16 µM | 62.6 µM | 15.7 µM | > 100 µM | 13.4 µM | 56.9 µM | 0.341 µM | 4.27 µM | 7.86 µM | > 65.4 µM | 14.2 µM | 54.3 µM | 28.9 µM | 2.12 µM
COC(=O)[C@]12CC[C@@H](C)[C@H](C)[C@@H]1C1=CC[C@@H]3[C@@]4(C)C(C=O)=C[C@@](C)(COC(=O)/C=C/c5ccccc5)[C@@H]4[C@H](O)C[C@@]3(C)[C@]1(C)CC2 | 3.37 µM | 31.5 µM | 4.96 µM | 25.9 µM | 16.5 µM | 97.9 µM | 3.75 µM | 16.2 µM | 2.76 µM | 9.95 µM | 1.79 µM | 4.45 µM | 2.49 µM | 8.48 µM | 2.29 µM | 6.76 µM | 2.48 µM | 5.97 µM | 32.1 µM | 9.4 µM
COc1ccc2c(c1)C(=O)c1c-2c(Nc2cccc(C(C)=O)c2)nc2ccccc12 | 5.55 µM | 20.5 µM | 11.7 µM | 32.2 µM |  |  | 3.09 µM | 12.3 µM | 4.21 µM | 14.9 µM | 9.79 µM | 31.5 µM | 11.6 µM | 27.7 µM | 21.6 µM | > 100 µM | > 100 µM | > 100 µM | 2.49 µM | 0.727 µM
C=CCc1c(O)c(C(=O)/C=C/c2ccccc2)c(OC)c2ccoc12 | 1.39 µM | 6.76 µM | 4.92 µM | 18.1 µM | 8.08 µM | 21.2 µM | 2.36 µM | 7.46 µM | 3.79 µM | 13.8 µM | 1.85 µM | 5.62 µM | 2.74 µM | 9.93 µM | 2.15 µM | 6.05 µM |  |  | 17.8 µM | 5.32 µM
COc1ccc(/C=C2\c3cc(OC)c(OC)c(OC)c3CC[C@@H]2O)cc1F |  |  | 0.322 µM | > 100 µM | 0.306 µM | 61.1 µM | 0.469 µM | 33.2 µM | 0.815 µM | > 100 µM |  |  | 0.283 µM | > 100 µM | 0.0899 µM | > 100 µM |  |  | > 100 µM | 0.245 µM
O=C(O[C@H]1CCN2C[C@H]3C[C@H](CN4C(=O)CCC[C@H]34)[C@@H]2C1)c1ccc(O)cc1 |  | > 100 µM |  | > 100 µM |  | > 100 µM |  | > 100 µM |  | > 100 µM |  | > 100 µM |  | > 100 µM |  | > 100 µM |  |  | > 100 µM | 
COc1cc(/C=C2\C[C@H]3[C@@H]4CC=C5C[C@@H](OC(C)=O)CC[C@]5(C)[C@H]4CC[C@]3(C)[C@H]2OC(C)=O)ccc1OCCN1CCCC1 |  |  | 1.3 µM | 9.69 µM |  |  |  |  |  |  | 14.6 µM | 30.8 µM | 9.48 µM | 17.5 µM |  |  | 10.3 µM | 20.6 µM | 20.5 µM | 9.43 µM
FC(F)(F)c1cc(Nc2ccc3cc(OCCCN4CCOCC4)ccc3n2)ccc1Cl | 1.61 µM | 3.92 µM | 3.17 µM | 13.3 µM | 2.21 µM | 4.87 µM | 1.27 µM | 2.75 µM | 2.05 µM | 4.86 µM | 1.39 µM | 3.22 µM |  |  | 1.4 µM | 4.73 µM | 2.24 µM | 6.49 µM | 3.63 µM | 1.87 µM
CCCCCCCC(=O)[O][Hg][CH2]C1COC([CH2][Hg][O]C(=O)CCCCCCC)CO1 (configuration not stated) | 15.3 µM | 34.6 µM | 18.1 µM | 32.2 µM | 13.2 µM | 27.6 µM | 15.2 µM | 28.6 µM | 13.9 µM | 26.9 µM | 18.5 µM | 32.5 µM | 17.5 µM | 45.3 µM |  |  | 2.77 µM | > 100 µM | 30.9 µM | 17.2 µM
